For one experiment, the target named is T1, HDAC1 enzyme (Homo sapiens, UniProt Q13547).
T1 construct: prepared by transducing full length HDAC1 and HDAC6 genes into Sf-9 insect cells; GST; purchased SignalChem; host or cells: Sf-9 insect cells
Description: HDAC1 enzyme inhibitory assay (HDAC-Glo I/II Assay kit). The format is biochemical. The settings on record: 1 μM test compound; read-out: HDAC1 inhibitory rate (%) (1 μM). Put shortly: (§1)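 Luminescent HDAC-Glo I/II read-out after 20 min room-temperature reaction with substrate-developer, following a 60 min room-temperature enzyme–compound preincubation. Enzymes: full-length HDAC1 or HDAC6 from Sf-9 cells, GST-purified; buffer pH 7.5 Tris with NaCl, glutathione, 0.01% Tween-20. No-enzyme wells defined 100% inhibition.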

In a further experiment the target is T2, HDAC6 enzyme (Homo sapiens, UniProt Q9UBN7).
T2 construct: prepared by transducing full length HDAC1 and HDAC6 genes into Sf-9 insect cells; GST; purchased SignalChem; host or cells: Sf-9 insect cells
T2 sequence (Q9UBN7 1-1215): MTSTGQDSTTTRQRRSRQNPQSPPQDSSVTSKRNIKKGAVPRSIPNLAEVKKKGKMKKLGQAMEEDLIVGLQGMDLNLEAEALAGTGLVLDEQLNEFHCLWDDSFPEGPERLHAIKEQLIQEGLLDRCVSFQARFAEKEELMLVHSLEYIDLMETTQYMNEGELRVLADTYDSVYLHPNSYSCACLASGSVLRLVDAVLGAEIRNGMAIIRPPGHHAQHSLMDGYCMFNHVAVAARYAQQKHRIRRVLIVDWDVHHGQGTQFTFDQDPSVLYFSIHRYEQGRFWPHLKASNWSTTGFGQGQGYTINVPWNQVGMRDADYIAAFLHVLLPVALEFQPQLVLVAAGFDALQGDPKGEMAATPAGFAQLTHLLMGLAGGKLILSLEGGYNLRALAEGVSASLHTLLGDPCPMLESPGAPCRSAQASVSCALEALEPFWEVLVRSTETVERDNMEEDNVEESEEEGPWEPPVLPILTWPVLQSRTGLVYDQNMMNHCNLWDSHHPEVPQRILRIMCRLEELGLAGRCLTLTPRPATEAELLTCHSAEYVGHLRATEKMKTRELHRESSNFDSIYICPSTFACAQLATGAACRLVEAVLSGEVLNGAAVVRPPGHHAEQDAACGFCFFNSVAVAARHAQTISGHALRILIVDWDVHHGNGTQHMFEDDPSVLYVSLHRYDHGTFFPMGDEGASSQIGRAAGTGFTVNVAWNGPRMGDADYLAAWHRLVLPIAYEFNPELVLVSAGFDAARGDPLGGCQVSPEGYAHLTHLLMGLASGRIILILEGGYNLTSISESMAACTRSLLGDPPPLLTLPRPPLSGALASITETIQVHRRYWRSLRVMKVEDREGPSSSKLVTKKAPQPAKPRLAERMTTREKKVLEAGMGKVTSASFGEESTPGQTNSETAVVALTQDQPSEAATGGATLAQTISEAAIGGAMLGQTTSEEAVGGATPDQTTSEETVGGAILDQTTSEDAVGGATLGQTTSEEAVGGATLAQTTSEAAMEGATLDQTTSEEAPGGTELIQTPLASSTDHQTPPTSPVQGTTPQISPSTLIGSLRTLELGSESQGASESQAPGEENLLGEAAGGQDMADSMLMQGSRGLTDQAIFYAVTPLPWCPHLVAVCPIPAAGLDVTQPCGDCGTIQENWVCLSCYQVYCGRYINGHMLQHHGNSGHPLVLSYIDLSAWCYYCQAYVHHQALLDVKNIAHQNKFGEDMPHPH
Description: HDAC6 enzyme inhibitory assay (HDAC-Glo I/II Assay kit). The class given is biochemical. The settings on record: 1 μM test compound; read-out: HDAC6 inhibitory rate (%) (1 μM). In a few lines: as §1

Molecules are shown by their SMILES.

T1 sequence (Q13547 whole entry): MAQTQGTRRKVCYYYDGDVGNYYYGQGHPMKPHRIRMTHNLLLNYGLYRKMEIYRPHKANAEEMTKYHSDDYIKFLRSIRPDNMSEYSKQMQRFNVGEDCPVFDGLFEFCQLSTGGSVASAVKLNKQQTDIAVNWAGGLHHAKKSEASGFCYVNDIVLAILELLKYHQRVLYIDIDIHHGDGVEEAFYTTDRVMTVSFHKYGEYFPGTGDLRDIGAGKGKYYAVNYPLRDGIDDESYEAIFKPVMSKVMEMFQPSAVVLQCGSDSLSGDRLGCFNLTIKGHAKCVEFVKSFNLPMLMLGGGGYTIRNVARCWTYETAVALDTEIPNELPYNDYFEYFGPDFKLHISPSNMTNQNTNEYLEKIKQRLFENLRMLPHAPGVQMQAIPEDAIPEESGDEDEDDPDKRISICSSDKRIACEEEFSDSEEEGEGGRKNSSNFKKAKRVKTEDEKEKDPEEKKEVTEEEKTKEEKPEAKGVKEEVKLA

With `CC(C)(C(=O)N1CCOC[C@@H]1CNC(=O)c1ccc(-c2noc(C(F)(F)F)n2)cn1)c1ccccc1` [Example 206, N-(((3S)-4-(2-methyl-2-phenylpropanoyl)morpholin-3-yl)methyl)-5-(5-(trifluoromethyl)-1,2,4-oxadiazol-3-yl)pyridine-2-carboxamide], the inhibition at 1 µM at HDAC1 enzyme was 33%; at HDAC6 enzyme, 98%.

Take `O=C(NC[C@H]1COCCN1C(=O)C(F)(F)c1ccccc1)c1ccc(-c2noc(C(F)(F)F)n2)cn1` [Example 207, N-(((3S)-4-(difluoro(phenyl)acetyl)morpholin-3-yl)methyl)-5-(5-(trifluoromethyl)-1,2,4-oxadiazol-3-yl)pyridine-2-carboxamide]: the inhibition at 1 µM came out at 41% on HDAC1 enzyme and 99% at HDAC6 enzyme.

On to `O=C(NC[C@@H]1COCCN1C(=O)C1(c2ccccc2)CC1)c1ccc(-c2noc(C(F)(F)F)n2)cn1` [Example 208, N-(((3R)-4-((1-phenylcyclopropyl)carbonyl)morpholin-3-yl)methyl)-5-(5-(trifluoromethyl)-1,2,4-oxadiazol-3-yl)pyridine-2-carboxamide], for which the inhibition at 1 µM on HDAC1 enzyme is 16%; on HDAC6 enzyme, 92%.

`O=C(NC[C@@H]1COCCN1C(=O)c1cc(Cl)cc(Cl)c1)c1ccc(-c2noc(C(F)(F)F)n2)cn1` [Example 209, N-(((3R)-4-(3,5-dichlorobenzoyl)morpholin-3-yl)methyl)-5-(5-(trifluoromethyl)-1,2,4-oxadiazol-3-yl)pyridine-2-carboxamide]: the inhibition at 1 µM on HDAC1 enzyme was 21%; at HDAC6 enzyme it was 95%.

For the compound `O=C(NCC1COCCN1C(=O)c1ccccc1)c1ccc(-c2noc(C(F)(F)F)n2)s1` (stereo not drawn) [Example 210, N-((4-benzoylmorpholin-3-yl)methyl)-5-(5-(trifluoromethyl)-1,2,4-oxadiazol-3-yl)thiophene-2-carboxamide], the inhibition at 1 µM on HDAC1 enzyme worked out at 23%; on HDAC6 enzyme, 96%.

On to `O=C(NCC1COCCN1C(=O)c1cc(Cl)cc(Cl)c1)c1ccc(-c2noc(C(F)(F)F)n2)s1` (stereo not drawn) [Example 211, N-((4-(3,5-dichlorobenzoyl)morpholin-3-yl)methyl)-5-(5-(trifluoromethyl)-1,2,4-oxadiazol-3-yl)thiophene-2-carboxamide], for which the inhibition at 1 µM on HDAC1 enzyme was found to be 15%; on HDAC6 enzyme, 96%.

Consider `O=C(NCC1COCCN1C(=O)c1cccc(-c2ccccc2)c1)c1ccc(-c2noc(C(F)(F)F)n2)s1` (stereo not drawn) [Example 222, N-((4-(biphenyl-3-ylcarbonyl)morpholin-3-yl)methyl)-5-(5-(trifluoromethyl)-1,2,4-oxadiazol-3-yl)thiophene-2-carboxamide], for which the values for the inhibition at 1 µM at HDAC1 enzyme and at HDAC6 enzyme were 7% and 89%, respectively.

Take `Cc1oncc1C(=O)N1CCOCC1CNC(=O)c1ccc(-c2noc(C(F)(F)F)n2)s1` (stereo not drawn) [Example 235, N-((4-((5-methyl-1,2-oxazol-4-yl)carbonyl)morpholin-3-yl)methyl)-5-(5-(trifluoromethyl)-1,2,4-oxadiazol-3-yl)thiophene-2-carboxamide]: the values for the inhibition at 1 µM at HDAC1 enzyme and at HDAC6 enzyme were 17% and 99%, respectively.

Regarding `Cc1nonc1C(=O)N1CCOCC1CNC(=O)c1ccc(-c2noc(C(F)(F)F)n2)s1` (stereo not drawn) [Example 236, N-((4-((4-methyl-1,2,5-oxadiazol-3-yl)carbonyl)morpholin-3-yl)methyl)-5-(5-(trifluoromethyl)-1,2,4-oxadiazol-3-yl)thiophene-2-carboxamide], the inhibition at 1 µM was 43% on HDAC1 enzyme and 98% at HDAC6 enzyme.

For `Cc1nnsc1C(=O)N1CCOCC1CNC(=O)c1ccc(-c2noc(C(F)(F)F)n2)s1` (stereo not drawn) [Example 237, N-((4-((4-methyl-1,2,3-thiadiazol-5-yl)carbonyl)morpholin-3-yl)methyl)-5-(5-(trifluoromethyl)-1,2,4-oxadiazol-3-yl)thiophene-2-carboxamide], the inhibition at 1 µM was 27% on HDAC1 enzyme and 98% on HDAC6 enzyme.

On to `O=C(NCC1COCCN1C(=O)C(F)(F)c1ccccc1)c1ccc(-c2noc(C(F)(F)F)n2)s1` (stereo not drawn) [Example 246, N-((4-(difluoro(phenyl)acetyl)morpholin-3-yl)methyl)-5-(5-(trifluoromethyl)-1,2,4-oxadiazol-3-yl)thiophene-2-carboxamide], for which the values for the inhibition at 1 µM at HDAC1 enzyme and on HDAC6 enzyme were 52% and 99%, respectively.

With `CC(C)(C(=O)N1CCOCC1CNC(=O)c1ccc(-c2noc(C(F)(F)F)n2)s1)c1ccccc1` (stereo not drawn) [Example 247, N-((4-(2-methyl-2-phenylpropanoyl)morpholin-3-yl)methyl)-5-(5-(trifluoromethyl)-1,2,4-oxadiazol-3-yl)thiophene-2-carboxamide], the inhibition at 1 µM was 18% at HDAC1 enzyme and 98% at HDAC6 enzyme.

Regarding `O=C(NCC1COCCN1C(=O)C1(c2ccccc2)CC1)c1ccc(-c2noc(C(F)(F)F)n2)s1` (stereo not drawn) [Example 248, N-((4-((1-phenylcyclopropyl)carbonyl)morpholin-3-yl)methyl)-5-(5-(trifluoromethyl)-1,2,4-oxadiazol-3-yl)thiophene-2-carboxamide], the values for the inhibition at 1 µM at HDAC1 enzyme and on HDAC6 enzyme were 18% and 97%, respectively.

With `Cn1nc2ccccc2c1C(=O)N1CCOCC1CNC(=O)c1ccc(-c2noc(C(F)(F)F)n2)s1` (stereo not drawn) [Example 251, N-((4-((2-methyl-2H-indazol-3-yl)carbonyl)morpholin-3-yl)methyl)-5-(5-(trifluoromethyl)-1,2,4-oxadiazol-3-yl)thiophene-2-carboxamide], the inhibition at 1 µM was determined as 36% at HDAC1 enzyme and 96% at HDAC6 enzyme.

In the case of `O=C(NCC1COCCN1C(=O)C1CCCCC1)c1ccc(-c2noc(C(F)(F)F)n2)s1` (stereo not drawn) [Example 254, N-((4-(cyclohexylcarbonyl)morpholin-3-yl)methyl)-5-(5-(trifluoromethyl)-1,2,4-oxadiazol-3-yl)thiophene-2-carboxamide], the results for the inhibition at 1 µM on HDAC1 enzyme and at HDAC6 enzyme were 33% and 98%, respectively.

Regarding `O=C(NCC1COCCN1C(=O)C1C2CC3CC(C2)CC1C3)c1ccc(-c2noc(C(F)(F)F)n2)s1` (stereo not drawn) [Example 256, N-((4-(adamantan-2-ylcarbonyl)morpholin-3-yl)methyl)-5-(5-(trifluoromethyl)-1,2,4-oxadiazol-3-yl)thiophene-2-carboxamide], the inhibition at 1 µM was found to be 34% at HDAC1 enzyme and 99% on HDAC6 enzyme.

Regarding `Cc1oncc1C(=O)N1CCOC[C@@H]1CNC(=O)c1ccc(-c2noc(C(F)(F)F)n2)s1` [Example 259, N-(((3S)-4-((5-methyl-1,2-oxazol-4-yl)carbonyl)morpholin-3-yl)methyl)-5-(5-(trifluoromethyl)-1,2,4-oxadiazol-3-yl)thiophene-2-carboxamide], the inhibition at 1 µM was found to be 25% on HDAC1 enzyme and 100% at HDAC6 enzyme.

On to `Cc1nonc1C(=O)N1CCOC[C@@H]1CNC(=O)c1ccc(-c2noc(C(F)(F)F)n2)s1` [Example 260, N-(((3S)-4-((4-methyl-1,2,5-oxadiazol-3-yl)carbonyl)morpholin-3-yl)methyl)-5-(5-(trifluoromethyl)-1,2,4-oxadiazol-3-yl)thiophene-2-carboxamide], for which the inhibition at 1 µM on HDAC1 enzyme was found to be 44%; at HDAC6 enzyme, 98%.
